Counter-ions that a name gives are not always drawn.
Columns and labels:
Type in all cases: in vivo
Digitaria adscendens [1] = assay: Pre-emergence test (Example 6); settings: 10 days
Protocol: Upland soil was put in a pot of 10 cm diameter and the seeds of Digitaria adscendens were sown in the soil surface at a depth of 1 cm. After compacting the soil surface gently, the soil was sprayed evenly with solutions of Phosalacine sodium salt dissolved at different concentrations in water (each 5 ml). 10 days later, the number of emerged seedlings was counted and the percentage inhibition of emergence was evaluated by comparison with untreated plots. For comparison, a similar test was carried out using glyphosate (monosodium salt) instead of Phosalacine salt. The results shown in the following Table indicate that the pre-emergence effect of Phosalacine was better than that of glyphosate.

Rumex obtusifolius = assay: Foliage treatment with different salts (Example 11); design: key: 0 indicates no effect; 5 indicates complete kill; settings: Rumex obtusifolius (Plant No. 14), 1000 liter per hectare
Protocol: Aqueous solutions containing different salts of Phosalacine at different concentrations as active ingredients and 0.1% of octylphenylpolyoxy ethanol as surfactant were applied at a rate of 1000 liter per hectare to Rumex obtusifolius (Plant No. 14) at a certain stage of growth. 21 days after foliage treatment, damage to the plant was visually assessed on a scale of 0 to 5 as hereinbefore described. The salts used were prepared by the methods described in the reference mentioned above.

Digitaria adscendens [2] = assay: Foliage treatment of seedlings in pots (Example 7); settings: 10 days after foliage treatment, 1000 liter per hectare
Protocol: Upland soil was put in a pot of 10 cm diameter and the seeds of Digitaria adscendens were sown in the soil at a depth of 1 cm from the surface. When the height of the seedlings was about 10 cm, aqueous solutions of the test compounds as shown in the following Table were uniformly sprayed on the plants at a rate of 1.2 ml per plant, equivalent to 1000 liter per hectare. 10 days after the foliage treatment, damage to plants was visually assessed on a scale of from 0 to 10, where 0 indicates no effect and 10 indicates complete kill.

CC(C)C[C@H](NC(=O)[C@H](C)NC(=O)[C@@H](N)CCP(C)(=O)O)C(=O)O [Phosalacine (Na salt)]
Percent inhibition of emergence (Digitaria adscendens [1]; 500 g/ha): 80% | Percent inhibition of emergence (Digitaria adscendens [1]; 1000 g/ha): 100% | Percent inhibition of emergence (Digitaria adscendens [1]; 2500 g/ha): 100% | Damage to plants after 21 days, scale 0 to 5 (Rumex obtusifolius; 0.05%): 3 | Damage to plants after 21 days, scale 0 to 5 (Rumex obtusifolius; 0.1%): 5 | damage to plants, scale 0 to 10 (Digitaria adscendens [2]; Concentration 0.01 ppm): 3 (30) | damage to plants, scale 0 to 10 (Digitaria adscendens [2]; Concentration 0.03 ppm): 10 (100) | damage to plants, scale 0 to 10 (Digitaria adscendens [2]; Concentration 0.1 ppm): 10 (100)
